Measurements: patent US11471558B2, “Polypeptide and hyaluronic acid coatings” (INSTITUT NATIONAL DE LA SANTE ET DE LA RECHERCHE MEDICALE …, priority 2016, dated 2022)

Assays:
[1] = tested on: S. aureus; conditions: Adv. Funct. Mater. 2013, 23, 4801-4809; cited from earlier work
[2] = tested on: S. aureus; assay: Minimal inhibitory concentration of PAR in solution; format: cell-based; conditions: for times less active than PAR100 or PAR200 chains (from MICs in solution): per chain; for bacterial growth inhibition by PAR in solution: 1 μM
Experimental: Staphylococcus aureus (S. aureus, ATCC 25923) strains were used to assess the antibacterial properties of the test samples. Bacterial strain was cultured aerobically at 37° C. in a Mueller Hinton Broth (MHB) medium (Merck, Germany), pH 7.4. One colony was transferred to 10 mL of MHB medium and incubated at 37° C. for 20 h, to provide a final density of 10^6 CFU·mL^−1. To obtain bacteria in the mid logarithmic phase of growth, the absorbance at 620 nm of overnight culture was adjusted of 0.001.
In the following the inventors of the present invention wanted to further elucidate the underlying mechanism that confer to the coatings of the invention the strong inhibitory property on the surface and in the supernatant. As an example the (PAR30/HA)24 coating was further investigated. Accordingly, the minimal inhibitory concentration (MIC) of PAR in solution was determined using bacterial assay as described in Experimental Section. […] Finally for PAR at concentrations of 0.01 mg·mL^−1, inhibition of 100% was shown only for PAR30. Longer or shorter PAR chains (PAR10, PAR100 or PAR200) inhibits only partially (less than 40%) S. aureus growth. […] This reasoning is valid when PAR concentration values are expressed in mass (mg·mL^−1) thus it is related to the number of arginine monomers. However when the graph is plotted with concentrations in μM (and thus proportional in number of chains), which means that concentration is related to number of chains, different interpretation can be made. […] Moreover the MIC100 values obtained for PAR30, PAR100 or PAR200 ranges at very low concentrations (between 1 and 2 μM) which is remarkable when compared to well-known antimicrobial peptides (for example 30 μM for cateslytin with S. aureus, see Adv. Funct. Mater. 2013, 23, 4801-4809). PAR is thus a powerful candidate to fight against S. aureus.
FIG. 12: Graph with the Minimal inhibitory concentration (MIC100) of soluble PAR with 10, 30, 100 or 200 arginine residues. The Minimal inhibitory concentration (MIC100) leading to 100% inhibition of S. aureus were measured in solution. PAR with 10, 30, 100 or 200 arginine residues were tested.

[3] = concentrations up to 0.04 mg·mL−1

Row | Substance | MIC with S. aureus (antimicrobial peptide, literature) [1] [µM] | S. aureus growth inhibition by PAR in solution ([2]; 0.01 mg·mL−1) [%] | S. aureus growth inhibition by PAR in solution ([2]; 0.03 mg·mL−1) | MIC90 ([2]; PAR in solution, S. aureus) | S. aureus growth inhibition by PAR in solution [2, 3] | times less active than PAR100 or PAR200 chains (from MICs in solution) [2] [times] | bacterial growth inhibition by PAR in solution [2]
1 | cateslytin | 30 |  |  |  |  |  | 
2 | poly-L-arginine [PAR30] |  | 100 | total inhibition | about 2 μM | totally inhibited | 2 | 
3 | poly-L-arginine [PAR200] |  |  | about 45% |  | totally inhibited |  | totally inhibit
4 | poly-L-arginine [PAR10] |  |  | total inhibition |  | totally inhibited | 10 | 
5 | poly-L-arginine [PAR100] |  |  | total inhibition |  | totally inhibited |  | totally inhibit
